According to patent US20260048047A1, “SMALL-MOLECULE ACTIVATORS OF MYCOBACTERIUM TUBERCULOSIS ADENYLYL CYCLASE” (priority 2022, published 2026):

Columns and labels:
Rv1625c = type: cell-based, Mycobacterium tuberculosis
M. tuberculosis = assay: Extracellular activity against M. tuberculosis in cholesterol media (Alamar Blue reduction assay); type: cell-based, Mycobacterium tuberculosis

Row | Compound | cAMP induction in ΔRv1625c mutant (Rv1625c) | Inhibition of ΔRv1625c strain in cholesterol media (M. tuberculosis) | Fold greater susceptibility of rv1625c overexpression strain (2×rv1625c) than WT (M. tuberculosis; 2×rv1625c vs WT, 7H12+cholesterol)
1 | Cc1nonc1CC(=O)N1CCC(n2nnc(-c3ccc(F)cc3)n2)CC1 [Compound V-59, 1-(4-(5-(4-fluorophenyl)-2H-tetrazol-2-yl)piperidin-1-yl)-2-(4-methyl-1,2,5-oxadiazol-3-yl)ethan-1-one] | did not affect | refractory | ~15 fold
2 | Cn1ncnc1CC(=O)N1CCC(c2nc(-c3ccc(Cl)c(Cl)c3)no2)CC1 [mCLB073, 1-(4-(3-(3,4-dichlorophenyl)-1,2,4-oxadiazol-5-yl)-1-piperidinyl)-2-(2-methyl-2H-1,2,4-triazol-3-yl)-1-ethanone] | – | refractory | –
